Test results taken from US20250345253A1 (priority 2024, published 2025).

Assay: In vitro whitening and cleaning of stained test samples

O=c1nc([O-])n(Cl)c(=O)n1Cl.[Na+] [dichloroisocyanurate]
Whitening and cleaning performance versus hydrogen peroxide solutions and salts (compared with cleaning solutions of up to 25% hydrogen peroxide and hydrogen peroxide salts (sodium perborate)): outperformed both hydrogen peroxide cleaning solutions of up to 25% hydrogen peroxide and hydrogen peroxide salts (sodium perborate)
Whitening and cleaning of stained test samples (compared with other cleaning formulations containing hydrogen peroxide): whitened and cleaned stained test samples better than other cleaning formulations containing hydrogen peroxide
